Test results from ChEMBL document CHEMBL1201862, “PubChem BioAssay data set” (2004).
One block for each molecule: values may come before it. Calls of active or inactive are those of the source.

Experiments:
[1] = molecular target: Cytochrome P450 2C19 (Homo sapiens, UniProt P33261); experiment: Cytochrome panel assay with activity outcomes. Panel member name: p450-cyp2c19 Compounds with AC50 equal or less than 10 uM are considered active; type: functional; conditions: read-out: AC50
[2] = molecular target: T1, Cytochrome P450 1A2 (Homo sapiens, UniProt P05177)
T1 sequence (P05177 whole entry): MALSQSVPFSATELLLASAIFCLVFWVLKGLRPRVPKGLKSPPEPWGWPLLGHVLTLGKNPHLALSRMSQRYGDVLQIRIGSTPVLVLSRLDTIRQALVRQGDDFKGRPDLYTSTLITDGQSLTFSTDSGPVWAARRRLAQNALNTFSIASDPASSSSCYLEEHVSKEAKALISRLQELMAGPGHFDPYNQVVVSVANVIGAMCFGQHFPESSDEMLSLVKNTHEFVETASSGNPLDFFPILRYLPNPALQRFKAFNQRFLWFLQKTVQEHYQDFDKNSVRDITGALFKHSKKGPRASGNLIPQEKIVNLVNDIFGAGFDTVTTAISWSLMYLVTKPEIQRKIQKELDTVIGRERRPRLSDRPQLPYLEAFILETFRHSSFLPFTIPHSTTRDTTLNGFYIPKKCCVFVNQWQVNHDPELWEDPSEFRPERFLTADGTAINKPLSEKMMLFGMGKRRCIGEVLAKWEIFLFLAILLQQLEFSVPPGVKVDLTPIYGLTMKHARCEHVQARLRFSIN

[3] = molecular target: T2, Heat shock factor protein 1 (Mus musculus, UniProt P38532); experiment: HSF1 potentiators in luciferase reporter cells, confirmation, cell-based, NIH3T3, luminescence, dose retest (AID 435004); type: functional;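 also: stress induced by proteasome inhibitor MG132 added 30 min after compound; luciferase reporter driven by HSF1 response element in NIH3T3 cells; actives raise luminescence as potentiators of the MG132 stress response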
T2 sequence (P38532 whole entry): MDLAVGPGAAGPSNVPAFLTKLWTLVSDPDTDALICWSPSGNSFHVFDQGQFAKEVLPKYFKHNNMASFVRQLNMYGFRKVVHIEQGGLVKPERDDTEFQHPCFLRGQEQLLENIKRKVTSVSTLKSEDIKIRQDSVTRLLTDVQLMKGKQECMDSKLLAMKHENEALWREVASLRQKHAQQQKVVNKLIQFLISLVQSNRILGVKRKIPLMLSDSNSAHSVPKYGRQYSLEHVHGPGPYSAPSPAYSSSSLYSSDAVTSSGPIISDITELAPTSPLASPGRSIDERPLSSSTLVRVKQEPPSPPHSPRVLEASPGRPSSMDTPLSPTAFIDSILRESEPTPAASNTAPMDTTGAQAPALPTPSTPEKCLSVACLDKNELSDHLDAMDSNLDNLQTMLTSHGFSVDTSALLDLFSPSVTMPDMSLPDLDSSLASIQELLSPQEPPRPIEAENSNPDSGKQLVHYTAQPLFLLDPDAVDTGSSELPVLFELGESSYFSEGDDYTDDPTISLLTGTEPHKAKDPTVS

[4] = molecular target: T3, Rac GTPase-activating protein 1 (Homo sapiens, UniProt Q9H0H5); experiment: MgcRacGAP GTPase-activating activity inhibitors, confirmation, biochemical, ADP Hunter fluorescence, primary and confirmatory (AID 624330); type: functional
T3 sequence (Q9H0H5 whole entry): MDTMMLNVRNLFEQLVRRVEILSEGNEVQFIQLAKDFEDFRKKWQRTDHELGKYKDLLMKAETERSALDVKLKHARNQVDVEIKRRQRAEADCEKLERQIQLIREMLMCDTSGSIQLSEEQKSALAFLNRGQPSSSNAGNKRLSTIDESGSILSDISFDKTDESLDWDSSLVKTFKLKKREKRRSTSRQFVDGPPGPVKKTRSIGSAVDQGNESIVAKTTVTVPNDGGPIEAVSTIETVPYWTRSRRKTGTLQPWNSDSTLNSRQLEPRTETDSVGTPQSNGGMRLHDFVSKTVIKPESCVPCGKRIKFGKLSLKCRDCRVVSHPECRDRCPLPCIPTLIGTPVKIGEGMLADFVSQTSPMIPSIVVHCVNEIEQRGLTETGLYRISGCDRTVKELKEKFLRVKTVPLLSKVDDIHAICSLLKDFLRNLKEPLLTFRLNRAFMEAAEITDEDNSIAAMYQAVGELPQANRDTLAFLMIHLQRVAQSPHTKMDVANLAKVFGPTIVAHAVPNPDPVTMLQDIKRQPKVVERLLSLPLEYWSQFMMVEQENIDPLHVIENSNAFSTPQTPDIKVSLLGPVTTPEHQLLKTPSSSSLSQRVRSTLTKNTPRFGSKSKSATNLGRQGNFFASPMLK

[5] = molecular target: Cytochrome P450 3A4 (Homo sapiens, UniProt P08684);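 also: CYP3A4 tested as one member of a cytochrome P450 panel screen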
[6] = molecular target: Cytochrome P450 2D6 (Homo sapiens, UniProt P10635);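 also: CYP2D6 member of a cytochrome P450 panel assay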
[7] = molecular target: T4, Corticotropin-releasing factor receptor 2/Corticotropin-releasing factor-binding protein (Homo sapiens, UniProt P24387+Q13324); experiment: Dose Response confirmation of uHTS hits for small molecule antagonists of the CRF-binding protein and CRF-R2 receptor complex.; type: functional; conditions: read-out: IC50_Mean
T4 sequence (Q13324 whole entry): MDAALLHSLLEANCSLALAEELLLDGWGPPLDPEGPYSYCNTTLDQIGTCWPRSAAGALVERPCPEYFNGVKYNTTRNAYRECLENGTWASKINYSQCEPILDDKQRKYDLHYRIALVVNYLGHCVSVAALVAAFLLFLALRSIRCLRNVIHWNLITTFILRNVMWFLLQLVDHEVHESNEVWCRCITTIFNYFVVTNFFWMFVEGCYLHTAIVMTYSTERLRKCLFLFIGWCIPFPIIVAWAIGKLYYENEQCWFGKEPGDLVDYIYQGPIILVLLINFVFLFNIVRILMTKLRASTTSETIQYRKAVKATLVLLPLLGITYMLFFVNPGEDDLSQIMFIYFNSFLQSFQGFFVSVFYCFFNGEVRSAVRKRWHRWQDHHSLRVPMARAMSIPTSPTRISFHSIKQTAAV
T4 sequence (P24387 whole entry): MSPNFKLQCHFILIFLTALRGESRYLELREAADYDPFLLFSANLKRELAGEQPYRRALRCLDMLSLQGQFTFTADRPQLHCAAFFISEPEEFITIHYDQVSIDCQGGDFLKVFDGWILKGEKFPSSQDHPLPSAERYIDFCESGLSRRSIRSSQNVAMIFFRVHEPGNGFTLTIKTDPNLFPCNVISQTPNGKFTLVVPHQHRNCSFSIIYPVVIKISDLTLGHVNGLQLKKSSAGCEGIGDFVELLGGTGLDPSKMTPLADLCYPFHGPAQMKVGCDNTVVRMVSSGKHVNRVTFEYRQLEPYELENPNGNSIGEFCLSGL

[8] = molecular target: T4, Corticotropin-releasing factor receptor 2/Corticotropin-releasing factor-binding protein; experiment: activators of CRF receptor 2 with binding protein – uHTS hits, confirmation (AID 602473); type: functional; conditions: read-out: EC50_Mean
[9] = cytotoxicity toward NIH3T3 fibroblasts, dose response, counter-screen, cell-based, ATP luminescence, mouse fibroblasts (AID 2010); type: functional;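 also: cells exposed to compound for about 90 hours before reading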
[10] = inhibitors of intracellular T. cruzi replication, confirmation, NIH3T3 host cells, beta-gal luminescence (AID 2044); type: functional, cell-based;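 also: intracellular parasites grown in NIH/3T3 mouse fibroblasts as host cells; luminescent beta-galactosidase reporter signal from transgenic T. cruzi replicating inside host cells; inhibitors lower the luminescence signal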
[11] = molecular target: Cytochrome P450 2C9 (Homo sapiens, UniProt P11712)
[12] = HEp-2 cell cytotoxicity, dose response, cytotoxicity control for RSV inhibitor project, HTS (AID 2410); type: functional; conditions: human respiratory syncytial virus

Sequence of Cytochrome P450 2C19 (P33261 whole entry): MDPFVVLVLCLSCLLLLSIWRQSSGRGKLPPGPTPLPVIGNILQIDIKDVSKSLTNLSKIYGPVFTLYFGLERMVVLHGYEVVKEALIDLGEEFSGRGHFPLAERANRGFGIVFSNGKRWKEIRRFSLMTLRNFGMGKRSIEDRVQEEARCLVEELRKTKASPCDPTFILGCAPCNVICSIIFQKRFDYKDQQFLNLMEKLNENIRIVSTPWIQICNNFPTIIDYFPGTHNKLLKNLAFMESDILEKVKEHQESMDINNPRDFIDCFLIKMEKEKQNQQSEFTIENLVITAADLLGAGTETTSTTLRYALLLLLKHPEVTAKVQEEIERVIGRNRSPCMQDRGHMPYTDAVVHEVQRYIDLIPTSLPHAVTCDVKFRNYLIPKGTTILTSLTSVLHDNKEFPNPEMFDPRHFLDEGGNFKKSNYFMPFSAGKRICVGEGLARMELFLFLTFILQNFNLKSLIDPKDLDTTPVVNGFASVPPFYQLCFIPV
Sequence of Cytochrome P450 2D6 (P10635 whole entry): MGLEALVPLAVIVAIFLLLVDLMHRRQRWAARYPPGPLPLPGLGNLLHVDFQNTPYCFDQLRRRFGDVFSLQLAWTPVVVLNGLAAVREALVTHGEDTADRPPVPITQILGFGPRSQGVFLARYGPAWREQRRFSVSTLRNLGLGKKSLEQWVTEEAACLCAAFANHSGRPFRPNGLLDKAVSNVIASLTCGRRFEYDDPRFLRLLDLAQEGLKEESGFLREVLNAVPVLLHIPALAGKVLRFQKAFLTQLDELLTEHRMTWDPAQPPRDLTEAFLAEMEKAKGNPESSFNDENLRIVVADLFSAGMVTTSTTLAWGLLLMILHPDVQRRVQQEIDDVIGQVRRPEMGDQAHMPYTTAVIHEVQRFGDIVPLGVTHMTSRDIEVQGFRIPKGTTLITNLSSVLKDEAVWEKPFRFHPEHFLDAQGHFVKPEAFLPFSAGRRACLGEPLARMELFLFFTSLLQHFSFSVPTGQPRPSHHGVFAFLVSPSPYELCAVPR
Sequence of Cytochrome P450 3A4 (P08684 whole entry): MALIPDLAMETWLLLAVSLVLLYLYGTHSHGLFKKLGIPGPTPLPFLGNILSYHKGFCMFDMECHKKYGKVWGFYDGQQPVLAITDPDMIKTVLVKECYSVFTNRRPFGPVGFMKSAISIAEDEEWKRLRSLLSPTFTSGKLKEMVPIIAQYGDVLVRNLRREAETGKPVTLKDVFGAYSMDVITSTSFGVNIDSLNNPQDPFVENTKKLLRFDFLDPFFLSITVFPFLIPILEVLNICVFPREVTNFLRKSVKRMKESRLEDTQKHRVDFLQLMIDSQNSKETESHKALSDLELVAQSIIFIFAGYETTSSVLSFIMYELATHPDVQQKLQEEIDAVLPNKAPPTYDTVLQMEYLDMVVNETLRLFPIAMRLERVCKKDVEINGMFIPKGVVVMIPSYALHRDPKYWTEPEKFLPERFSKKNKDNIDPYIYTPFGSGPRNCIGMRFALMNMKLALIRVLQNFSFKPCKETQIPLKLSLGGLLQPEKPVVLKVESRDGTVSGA
Sequence of Cytochrome P450 2C9 (P11712 whole entry): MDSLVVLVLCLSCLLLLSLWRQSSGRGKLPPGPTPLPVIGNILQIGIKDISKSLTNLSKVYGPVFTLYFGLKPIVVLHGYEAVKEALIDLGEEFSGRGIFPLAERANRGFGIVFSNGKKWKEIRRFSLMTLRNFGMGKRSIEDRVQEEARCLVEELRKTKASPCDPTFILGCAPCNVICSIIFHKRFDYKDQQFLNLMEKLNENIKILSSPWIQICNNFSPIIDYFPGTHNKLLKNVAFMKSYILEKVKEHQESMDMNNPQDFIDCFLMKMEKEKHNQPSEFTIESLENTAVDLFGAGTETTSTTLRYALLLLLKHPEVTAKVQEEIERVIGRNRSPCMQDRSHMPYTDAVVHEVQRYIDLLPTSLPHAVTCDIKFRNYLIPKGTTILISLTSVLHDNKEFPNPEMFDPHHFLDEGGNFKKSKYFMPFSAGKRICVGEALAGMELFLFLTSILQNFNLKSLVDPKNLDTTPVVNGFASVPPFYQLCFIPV

SMILES: Cn1cnc([N+](=O)[O-])c1Sc1nc(N)nc2c1ncn2[C@H]1C[C@H](O)[C@@H](CO)O1
AC50 [2]: 6.31 µM (inconclusive)

SMILES: CC12CN(C(S)=Nc3ccccc3)CC(C)(CN(C(S)=Nc3ccccc3)C1)C2=O
EC50 [3]: > 260 µM (inactive)

SMILES: CC(C)c1nnc(SCc2ccc(CSc3nnc(C(C)C)n3N)cc2)n1N
EC50 [3]: > 260 µM (inactive)

SMILES: COc1cc(OC)c(N(C)S(=O)(=O)c2cccc(C(=O)Nc3nnc(C4CC4)s3)c2)cc1Cl
EC50 [3]: 203 µM (active)

SMILES: COc1ccc(CN2CCNC(=O)C2CC(=O)NCC2CCOCC2)cc1C (centres undefined)
EC50 [3]: > 260 µM (inactive)

SMILES: CCCCCNCc1cccc(Br)c1
AC50 [2]: 15.8 µM (inconclusive)

SMILES: C=CCN(CC=C)C(=O)C1CCN(Cc2ccc(OCc3ccccc3)cc2)CC1
IC50 [4]: 169 µM (active)

SMILES: O=C(CCN1C(=O)c2ccccc2C1=O)Nc1sc2c(c1C(=O)NCC1CCCO1)CCC2 (centres undefined)
EC50 [3]: > 260 µM (inactive)

SMILES: CCOC(=O)C1(CCOc2ccccc2)CCN(Cc2cc(OC)c3c(c2)OCO3)CC1
EC50 [9]: > 60 µM (not active)
EC50 [10]: 2.65 µM (active)
EC50 [3]: > 260 µM (inactive)

SMILES: COc1ccc(NC(=O)N2CCC3(CC2)CCN(C(=O)c2ccco2)CC3)cc1
AC50 [2]: 20 µM (inconclusive)

SMILES: C[C@@]12C=CC(=O)C=C1CC[C@@H]1C2=CC[C@]2(C)[C@@H]1CC[C@H]2C(=O)CN1CCN(c2cc(N3CCCC3)nc(N3CCCC3)n2)CC1
AC50 [11]: 12.6 µM (inconclusive)
AC50 [2]: 12.6 µM (inconclusive)
AC50 [6]: 25.1 µM (inconclusive)

SMILES: COC(=O)C1CC1C(NC(=O)[C@@H]1CCCN1)c1ccccc1 (some centres undefined)
AC50 [1]: 39.8 µM (inconclusive)
AC50 [2]: 15.8 µM (inconclusive)
AC50 [6]: 20 µM (inconclusive)

SMILES: CCOC(=O)CSC1=NC(=O)/C(=C\c2ccc(Cl)cc2)S1
AC50 [1]: 3.16 µM (inconclusive)
CC50 [12]: 18.9 µM (active)
EC50 [3]: 2.74 µM (active)

SMILES: Cc1nn(Cc2ccccc2Cl)c(C)c1NC(=O)CCCn1nc([N+](=O)[O-])c(Cl)c1C
EC50 [9]: > 60 µM (not active)
EC50 [10]: 0.514 µM (active)
EC50 [3]: > 260 µM (inactive)

SMILES: COc1ccc(Nc2nc(Cl)nc(NCc3ccco3)n2)c(OC)c1
IC50 [7]: > 47.1 µM (inactive)
EC50 [8]: > 53 µM (inactive)

SMILES: CCN1CCCC1CNCC(=O)Nc1ccc(OC(F)(F)F)cc1 (centres undefined)
IC50 [4]: 115 µM (active)

SMILES: O=[N+]([O-])c1ccc(S(=O)(=O)N(Cc2cccnc2)Cc2cc3ccccc3nc2O)cc1
EC50 [9]: > 60 µM (not active)
EC50 [10]: 1.84 µM (active)
EC50 [3]: > 260 µM (inactive)

SMILES: Oc1ccc(NC(S)=Nc2ccc(F)cc2)cc1
IC50 [4]: 67.5 µM (active)

SMILES: COC(=O)N1CCC2(CCCN(C(=O)Nc3ccc(OC)cc3)C2)CC1
AC50 [2]: 20 µM (inconclusive)
AC50 [5]: 25.1 µM (inconclusive)

SMILES: Cc1ccc(CNC(=O)CCC(=O)c2cccs2)cc1
IC50 [7]: > 47.1 µM (inactive)
EC50 [8]: > 53 µM (inactive)

SMILES: C=CCNC1=C(C(=O)CCC(=O)OC)C(=O)CC(C)(C)C1
AC50 [2]: 2.51 µM (inconclusive)

SMILES: Cc1cc(OCCCC(=O)Nc2cc(S(=O)(=O)N3CCOCC3)ccc2N2CCOCC2)ccc1Cl
IC50 [7]: > 47.1 µM (inactive)
EC50 [8]: > 53 µM (inactive)

SMILES: CCC(C)c1ccc(S(=O)(=O)N2CCN(CC(O)COCC3CCCO3)CC2)cc1 (centres undefined)
IC50 [7]: > 47.1 µM (inactive)
EC50 [8]: > 53 µM (inactive)

SMILES: COc1ccc(N2CCN(C(=O)CCS(=O)(=O)c3ccc4c(c3)NC(=O)CO4)CC2)cc1
IC50 [7]: > 47.1 µM (inactive)
EC50 [8]: > 53 µM (inactive)

SMILES: Cc1ncc2c(c1O)COP(=O)(O)OC2
AC50 [1]: 5.01 µM (inconclusive)
AC50 [2]: 31.6 µM (inconclusive)

Continued, values first:

AC50 [1]: 22.4 µM (inconclusive)
AC50 [2]: 28.2 µM (inconclusive)
SMILES: NC1=NC2(CCCCCC2)n2c(nc3ccccc32)N1

EC50 [3]: > 260 µM (inactive)
SMILES: Nc1cc[n+](CC(=O)Nc2ccccc2)cc1

AC50 [2]: 31.6 µM (inconclusive)
AC50 [5]: 12.6 µM (inconclusive)
AC50 [6]: 14.1 µM (inconclusive)
SMILES: Cc1ccc(NC(=O)Cn2cnc3c(cnn3C(C)(C)C)c2=O)cc1

IC50 [4]: 45 µM (active)
SMILES: O=[N+]([O-])c1ccc(N2CCN(c3ccc(O)cc3)CC2)c(Cl)c1

IC50 [7]: > 47.1 µM (inactive)
EC50 [8]: > 53 µM (inactive)
SMILES: O=C(Nc1nc(-c2ccccc2)cs1)c1ccc2c(c1)S(=O)(=O)c1ccccc1C2=O

IC50 [7]: > 47.1 µM (inactive)
EC50 [8]: > 53 µM (inactive)
SMILES: CCN(c1ccccc1)S(=O)(=O)c1cc(NC(=O)CSc2nnc(O)nc2O)ccc1Cl

IC50 [7]: > 47.1 µM (inactive)
EC50 [8]: > 53 µM (inactive)
SMILES: CCCc1cc(=O)nc(SCC(=O)Nc2ccc(OC(F)F)cc2)[nH]1

AC50 [2]: 15.8 µM (inconclusive)
SMILES: CCOC(=O)N1CCN(C(=O)CCn2nc(-c3ccccc3)ccc2=O)CC1

IC50 [4]: 95.5 µM (active)
SMILES: COc1ccc(Br)cc1CN(C)CC(=O)NCCc1ccccc1

IC50 [7]: > 47.1 µM (inactive)
EC50 [8]: > 53 µM (inactive)
SMILES: O=C1c2ccccc2-c2ncnc3c(N4CCOCC4)cc(N4CCOCC4)c1c23

EC50 [3]: > 260 µM (inactive)
SMILES: CCS(=O)(=O)N1CCc2nc(-c3ccccc3)sc2C1

IC50 [7]: > 47.1 µM (inactive)
EC50 [8]: > 53 µM (inactive)
SMILES: Cc1ccccc1C(=O)NCC(=O)OC1CCCCC1=O (centres undefined)

IC50 [4]: 210 µM (active)
SMILES: Cc1cc(-c2ccccc2)nc2c(Br)c(=O)[nH]n12

EC50 [3]: > 260 µM (inactive)
SMILES: Cc1ccccc1-c1nnc(CS(=O)(=O)c2ccccc2)o1

IC50 [4]: 203 µM (active)
IC50 [7]: > 47.1 µM (inactive)
EC50 [8]: > 53 µM (inactive)
SMILES: COc1cccc(OC)c1C(=O)N1CCN(Cc2cccnc2)CC1
